Data as given in the supplement of paper PMC11451515.

System: NOMO1
Test: cell viability relative to DMSO control; higher = less cytotoxic
Details: 48 h
How it was run: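 Viability was expressed as a per-plate percentage of DMSO wells, with cell-free wells as background. Leukemia cells (NOMO1 or SEM at 500 cells/well, P12-Ichikawa at 1000 cells/well) were adapted for at least four passages in each medium and seeded in 1536-well plates (5 μl). Library compounds in DMSO were pin-dosed over an 11-point threefold series from 47 μM to 0.79 nM, and CellTiter-Glo One luminescence was read after 48 h at 37°C.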

[1] = HPLM + 10% dialyzed FBS, 0.000781 µM
[2] = HPLM + 10% dialyzed FBS, 0.00234 µM
[3] = HPLM + 10% dialyzed FBS, 0.00702 µM
[4] = HPLM + 10% dialyzed FBS, 0.0211 µM
[5] = HPLM + 10% dialyzed FBS, 0.0632 µM
[6] = HPLM + 10% dialyzed FBS, 0.19 µM
[7] = HPLM + 10% dialyzed FBS, 0.569 µM
[8] = HPLM + 10% dialyzed FBS, 1.71 µM
[9] = HPLM + 10% dialyzed FBS, 5.12 µM
[10] = HPLM + 10% dialyzed FBS, 15.4 µM
[11] = HPLM + 10% dialyzed FBS, 46.1 µM
[12] = RPMI 5 mM glucose + 10% FBS, 0.000781 µM
[13] = RPMI 5 mM glucose + 10% FBS, 0.00234 µM
[14] = RPMI 5 mM glucose + 10% FBS, 0.00702 µM
[15] = RPMI 5 mM glucose + 10% FBS, 0.0211 µM
[16] = RPMI 5 mM glucose + 10% FBS, 0.0632 µM
[17] = RPMI 5 mM glucose + 10% FBS, 0.19 µM
[18] = RPMI 5 mM glucose + 10% FBS, 0.569 µM
[19] = RPMI 5 mM glucose + 10% FBS, 1.71 µM
[20] = RPMI 5 mM glucose + 10% FBS, 5.12 µM
[21] = RPMI 5 mM glucose + 10% FBS, 15.4 µM
[22] = RPMI 5 mM glucose + 10% FBS, 46.1 µM
[23] = RPMI 5 mM glucose + 10% dialyzed FBS, 0.000781 µM
[24] = RPMI 5 mM glucose + 10% dialyzed FBS, 0.00234 µM
[25] = RPMI 5 mM glucose + 10% dialyzed FBS, 0.00702 µM
[26] = RPMI 5 mM glucose + 10% dialyzed FBS, 0.0211 µM
[27] = RPMI 5 mM glucose + 10% dialyzed FBS, 0.0632 µM
[28] = RPMI 5 mM glucose + 10% dialyzed FBS, 0.19 µM
[29] = RPMI 5 mM glucose + 10% dialyzed FBS, 0.569 µM
[30] = RPMI 5 mM glucose + 10% dialyzed FBS, 1.71 µM
[31] = RPMI 5 mM glucose + 10% dialyzed FBS, 5.12 µM
[32] = RPMI 5 mM glucose + 10% dialyzed FBS, 15.4 µM
[33] = RPMI 5 mM glucose + 10% dialyzed FBS, 46.1 µM

SMILES | cell viability [1] | cell viability [2] | cell viability [3] | cell viability [4] | cell viability [5] | cell viability [6] | cell viability [7] | cell viability [8] | cell viability [9] | cell viability [10] | cell viability [11] | cell viability [12] | cell viability [13] | cell viability [14] | cell viability [15] | cell viability [16] | cell viability [17] | cell viability [18] | cell viability [19] | cell viability [20] | cell viability [21] | cell viability [22] | cell viability [23] | cell viability [24] | cell viability [25] | cell viability [26] | cell viability [27] | cell viability [28] | cell viability [29] | cell viability [30] | cell viability [31] | cell viability [32] | cell viability [33]
COc1ccc(CC2NCCc3cc(OC)c(OC)cc32)cc1OC (stereo unspecified) | 91.9% | 87.5% | 82.6% | 103% | 102% | 98.7% | 91.6% | 87.4% | 101% | 93.7% | 98.4% | 88.1% | 86.2% | 87% | 90.8% | 86.8% | 89.3% | 89.7% | 94.7% | 86.6% | 89.4% | 97.1% | 79.5% | 84.1% | 83.9% | 91.2% | 86.3% | 89.2% | 82.9% | 91% | 89.5% | 73.3% | 85.4%
Cc1c(CCOc2ccc(C(=O)O)cc2)c2cc(Cl)ccc2n1C(c1ccccc1)c1ccccc1 | 119% | 121% | 111% | 116% | 109% | 107% | 115% | 123% | 105% | 95% | 73.8% | 108% | 103% | 108% | 108% | 112% | 97.9% | 94.8% | 74.8% | 98.7% | 99.9% | 93.6% | 111% | 124% | 125% | 120% | 116% | 106% | 98.6% | 115% | 113% | 101% | 97.3%
COC1=CC=CC2=C1C(=NC(=N2)C3=CC=CS3)NN4C(=O)\C=C(C)/C4=O | 95.7% | 103% | 94% | 87.7% | 77.6% | 60.3% | 44.1% | 38.2% | 8.17% | 1.91% | 2.25% | 90% | 88.4% | 92.9% | 84.8% | 92.3% | 78.2% | 56.2% | 48.2% | 14.4% | 3.32% | 4.06% | 81.1% | 85.3% | 94.5% | 82.4% | 74.6% | 68.8% | 50.4% | 38.9% | 16.9% | 4.27% | 2.63%
CCC(C)SSc1ncc[nH]1 (stereo unspecified) | 88% | 85.5% | 94.8% | 103% | 102% | 105% | 90.3% | 87.4% | 104% | 53.6% | 12.6% | 86% | 93.9% | 97.7% | 98.2% | 92.5% | 93.1% | 96.5% | 104% | 104% | 67.5% | 13.6% | 89% | 97.6% | 89.2% | 101% | 94.5% | 94.5% | 94.8% | 105% | 101% | 81.8% | 9.7%
COc1cc2nc(N(C)CCCNC(=O)C3CCCO3)nc(N)c2cc1OC (stereo unspecified) | 63.4% | 82.7% | 99.4% | 77.8% | 96.3% | 90.6% | 79.7% | 89.7% | 31.3% | 28% | 20% | 70.7% | 74% | 71.9% | 75.4% | 73.2% | 81.8% | 72.1% | 71.9% | 33.2% | 36% | 10% | 61.6% | 76.5% | 68.8% | 85% | 77.6% | 77.9% | 75.4% | 87.4% | 51.9% | 61.9% | 15.1%
O=C(NOCC(O)CO)c1cc(Br)c(F)c(F)c1Nc1ccc(I)cc1F (stereo unspecified) | 65.8% | 77.1% | 72.1% | 79.8% | 59.2% | 50.5% | 30.1% | 32.6% | 29% | 33.9% | 20% | 69.1% | 90.6% | 67.6% | 73.3% | 66.5% | 50.5% | 28.1% | 33.7% | 27.5% | 28.8% | 27.8% | 81.3% | 84.3% | 59.2% | 58.1% | 49.8% | 40.9% | 27.5% | 30.3% | 26.7% | 31.2% | 24.6%
O=C(OC)[C@]12CC[C@@]3(C)[C@]4(C)CC[C@H]5[C@@](C)(C)C(=O)C(=C[C@]5(C)C4=CC(=O)[C@@H]3[C@@H]2C[C@](C)(C)CC1)C#N | 95% | 100% | 90.6% | 112% | 110% | 94.1% | 113% | 96.1% | 110% | 2.47% | 2.86% | 93.9% | 99.8% | 89.5% | 82.1% | 99.2% | 94.2% | 88.9% | 84.7% | 88.6% | 2.76% | 2.71% | 87.2% | 92% | 96.5% | 96.6% | 102% | 112% | 85% | 84.6% | 85.7% | 2.44% | 2.7%
